Data from PubChem BioAssay AID1918996 (Molecular Pharmacology Branch, DTP, NCI, 2023).
pIC50: −log10 of the molar value. Where “and” joins values, the source holds several entries; their conditions need not be identical. Equal entries are not always repeated.

Test system: 349418-098-R-PDC complex spheroid growth
Experiment: Anticancer human tumor 349418-098-R-PDC patient-derived lung adenocarcinoma cell line growth inhibition [AhR]
Settings: for viability, T/C: stronger effect = lower value; for pIC50: curve of compound
Source text: Multicellular complex tumor spheroid response to aryl hydrocarbon receptor antagonists in combination with a variety of drugs and investigational agents in selected tumor cell lines
The current study was undertaken to assess response to aryl hydrocarbon receptor antagonists in combination with standard-of-care drugs and investigational agents in solid tumor complex spheroid models. Complex spheroids include a stromal component modeled by human endothelial cells (HUVEC) and fibroblasts modeled by human mesenchymal stem cells (MSCs). The concentration ranges selected for each drug and investigational agent were based upon clinically achievable concentrations if the clinical Cmax of the agent was known.
Compounds. The drugs and investigational agents: BAY 2416964 (NSC825713), GNF351 (NSC835774), CH-223191 (NSC835775), CPI-455 (NSC825282), aza-TdCyd (NSC777586), decitabine (NSC127716), belinostat (NSC758774), entinostat (NSC756642), pevonedistat (NSC761192), tazemetostat (NSC777109), talazoparib (NSC765396), olaparib (NSC753686), selinexor (NSC780203), nedisertib (M3814, NSC802822), bortezomib (NSC756655), venetoclax (NSC766270), doxorubicin (NSC123127), elimusertib (BAY189344, NSC800525), ceralasertib (AZD6738, NSC777638), TAK-243 (NSC785004), alisertib (NSC759677), etoposide (NSC141540), topotecan (NSC609699), eribulin (NSC707389), gemcitabine (NSC613327), carboplatin (NSC241240), cisplatin (NSC119875), and SN-38 (NSC673596) were obtained from the National Cancer Institute (NCI) Developmental Therapeutics Program Chemical Repository (32). The FDA-approved anticancer drug set is available from the Developmental Therapeutics Program at https://dtp.cancer.gov/organization/dscb/obtaining/available plates.htm. […] The stock solutions were prepared in dimethyl sulfoxide (DMSO, Sigma-Aldrich, St. Louis, MO, cat. D2650), except for the platinum compounds which were prepared in saline (Quality Biological, Gaithersburg, MD, cat. 114-055-101), at 800-fold the tested concentration and stored at -70 degrees C prior to their use. All drugs and investigational agents were tested over a range starting from a high concentration at or near the clinical Cmax and decreasing in half-log increments. If the clinical Cmax for an agent had not been determined, the highest concentration tested was 10 microM (Table 1).
Cell Culture. All cells were maintained in an incubator at 37 degrees C and 5% CO2 with 95% humidity. The PDC lines were cultured according to standard operating procedures established by the NCI PDMR (https://pdmr.cancer.gov). Briefly, all PDCs were thawed and cultured in Matrigel-coated flasks prepared with a working solution of 1X Ham's F-12 nutrient mix, without supplementation (Invitrogen, Waltham, MA, cat. 11765054), 100 U/mL penicillin-streptomycin (Invitrogen, cat. 15140122), and 2.5% Matrigel (Corning Inc., Corning, NY, cat. 354248) for the first three passages. All PDCs were cultured in complete DMEM/F-12 media containing advanced DMEM/F-12 (Invitrogen, cat. 12634028), 4.9% defined fetal bovine serum, heat inactivated (HyClone Laboratories Inc., Logan, UT, cat. SH30070.03HI), 389 ng/mL hydrocortisone (Sigma-Aldrich, cat. H4001), 9.7 ng/mL human EGF recombinant protein (Invitrogen, cat. PHG0313), 23.4 microg/mL adenine (Sigma-Aldrich, cat. A2786), 97.3 U/mL penicillin-streptomycin (Invitrogen, cat. 15140122), 1.9 mM L-glutamine (Invitrogen, cat. 25030081), and 9.7 microM Y-27632 dihydrochloride (Tocris Bioscience, Bristol, United Kingdom, cat. 1254). The PDCs were cultured in complete DMEM/F12 media without 10 microM Y-27632 dihydrochloride for at least two passages prior to the screen. The established cell lines NCI-H1341 and […] were cultured in DMEM/F-12, HEPES (Invitrogen, cat. 11330032), 5% defined fetal bovine serum (HyClone Laboratories Inc., cat. SH30070.03), ITS premix universal culture supplement [insulin (5 microg/mL), transferrin (5 microg/mL), and selenious acid (5 ng/mL)] […]
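Further: spheroids exposed to agents for seven days before luminescence viability read.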
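Wherever viability, T/C is given: spheroids also contain HUVEC endothelial cells and human MSC stroma.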

pIC50	SMILES	viability, T/C (compound 0.000949 µM)	viability, T/C (compound 0.003 µM)	viability, T/C (compound 0.00949 µM)	viability, T/C (compound 0.03 µM)	viability, T/C (compound 0.0949 µM)	viability, T/C (compound 0.3 µM)	viability, T/C (compound 0.0316 µM)	viability, T/C (compound 0.1 µM)	viability, T/C (compound 0.316 µM)	viability, T/C (compound 1 µM)	viability, T/C (compound 3.16 µM)	viability, T/C (compound 10 µM)	viability, T/C (compound 0.00316 µM)	viability, T/C (compound 0.01 µM)	viability, T/C (compound 0.949 µM)	viability, T/C (compound 3 µM)	viability, T/C (compound 0.000316 µM)	viability, T/C (compound 0.001 µM)
7.58 and 7.59 and 7.89	CC[C@@]1(O)C(=O)OCc2c1cc1n(c2=O)Cc2cc3c(CN(C)C)c(O)ccc3nc2-1	–	–	–	–	–	–	43.4% and 42.2% and 21.3%	15.3% and 21.5% and 13.5%	–	–	–	–	93.6% and 63.5% and 81.3%	84.2% and 87.1% and 64%	–	–	94.4% and 113% and 119%	97.3% and 89.4% and 89.3%
8.80 and 8.47 and > 9.02	CCc1c2c(nc3ccc(O)cc13)-c1cc3c(c(=O)n1C2)COC(=O)[C@]3(O)CC	55.3% and 67.2% and 40.5%	43.4% and 54.1% and 42.9%	20.6% and 16% and 22.3%	7.29% and 12% and 8.26%	3.4% and 8.26% and 6.22%	1.91% and 6.96% and 4.74%	–	–	–	–	–	–	–	–	–	–	–	–
6.32 and 6.25 and 6.61	COc1cc(C2c3cc4c(cc3C(OC3OC5COC(C)OC5C(O)C3O)C3COC(=O)C23)OCO4)cc(OC)c1O (configuration not stated)	–	–	–	–	–	–	99.4% and 112% and 89.4%	99.9% and 91.1% and 91.7%	64.6% and 71% and 38.2%	22.5% and 31.2% and 21.6%	11.2% and 15.4% and 15.3%	5.4% and 11.7% and 12.5%	–	–	–	–	–	–
6.74 and 7.28 and > 7.50	COc1cc(Nc2ncc3c(n2)-c2ccc(Cl)cc2C(c2c(F)cccc2OC)=NC3)ccc1C(=O)O	–	–	–	–	–	–	71.2% and 55.7% and 53.1%	60.4% and 48.7% and 48.4%	35.9% and 24.7% and 26.5%	47% and 31.1% and 35.9%	43% and 33.3% and 42.7%	37.2% and 35.5% and 37.6%	–	–	–	–	–	–
5.42 and 5.75 and 5.94	COc1ccc([C@@H](O)c2cc(-c3ncnc4cc(N5CCOCC5)ccc34)c(F)cc2Cl)nn1	–	–	–	–	–	–	97.4% and 104% and 117%	112% and 77.3% and 98.6%	101% and 83.1% and 51.5%	84.5% and 66.4% and 65.3%	57.2% and 33.5% and 38.6%	16.7% and 11.3% and 12.6%	–	–	–	–	–	–

The remaining lines, values behind:

SMILES	pIC50	viability, T/C (compound 0.000949 µM)	viability, T/C (compound 0.003 µM)	viability, T/C (compound 0.00949 µM)	viability, T/C (compound 0.03 µM)	viability, T/C (compound 0.0949 µM)	viability, T/C (compound 0.3 µM)	viability, T/C (compound 0.0316 µM)	viability, T/C (compound 0.1 µM)	viability, T/C (compound 0.316 µM)	viability, T/C (compound 1 µM)	viability, T/C (compound 3.16 µM)	viability, T/C (compound 10 µM)	viability, T/C (compound 0.00316 µM)	viability, T/C (compound 0.01 µM)	viability, T/C (compound 0.949 µM)	viability, T/C (compound 3 µM)	viability, T/C (compound 0.000316 µM)	viability, T/C (compound 0.001 µM)
CC(C)CC(NC(=O)C(Cc1ccccc1)NC(=O)c1cnccn1)B(O)O (configuration not stated)	8.99 and > 9.02	52.6% and 44.3% and 19.1%	10.6% and 12.6% and 7.27%	1.45% and 2.68% and 2.76%	0.95% and 1.46% and 2.12%	0.72% and 2.31% and 2.54%	0.73% and 2.25% and 1.49%	–	–	–	–	–	–	–	–	–	–	–	–
CC(C)c1c(-c2ccccc2)nc2c(C#N)c[nH]n2c1=O	< 5.00	–	–	–	–	–	–	112% and 92.6% and 89.1%	106% and 83.2% and 76.1%	100% and 78.1% and 72%	103% and 77.8% and 82.3%	108% and 86.8% and 85.3%	91.6% and 86.8% and 79.7%	–	–	–	–	–	–
CC1(C)CCC(CN2CCN(c3ccc(C(=O)NS(=O)(=O)c4ccc(NCC5CCOCC5)c([N+](=O)[O-])c4)c(Oc4cnc5[nH]ccc5c4)c3)CC2)=C(c2ccc(Cl)cc2)C1	< 5.00 and 5.12 and 5.22	–	–	–	–	–	–	97.2% and 117% and 104%	110% and 106% and 101%	102% and 92.4% and 105%	94.9% and 91.9% and 76.2%	106% and 100% and 68.8%	96.6% and 33.3% and 37.7%	–	–	–	–	–	–
CC1COCCN1c1cc(-c2ccnn2C)c2ccnc(-c3ccn[nH]3)c2n1 (configuration not stated)	6.85 and 7.09 and 7.07	–	–	–	–	–	–	96.8% and 76.4% and 101%	64% and 45.4% and 42.6%	18.7% and 15.7% and 14.7%	7.38% and 10.8% and 9.29%	–	–	107% and 93.3% and 81%	106% and 116% and 95.6%	–	–	–	–
CC1COCCN1c1cc(C2(S(C)(=N)=O)CC2)nc(-c2ccnc3[nH]ccc23)n1 (configuration not stated)	5.30 and 5.82 and 5.84	–	–	–	–	–	–	101% and 113% and 96.1%	102% and 81.9% and 78.6%	102% and 125% and 74.4%	100% and 62.9% and 65.1%	73% and 40.4% and 28.4%	16.1% and 13.5% and 12.1%	–	–	–	–	–	–
CCN(c1cc(-c2ccc(CN3CCOCC3)cc2)cc(C(=O)NCc2c(C)cc(C)[nH]c2=O)c1C)C1CCOCC1	< 5.52	–	–	111% and 107% and 122%	109% and 98.9% and 71.2%	105% and 81.2% and 91.1%	108% and 64.7% and 101%	–	–	–	–	–	–	–	–	99.1% and 66.3% and 69.3%	94% and 69.9% and 88.5%	–	–
